For test [1], the target named is hGYS1 enzyme (recombinant hGYS1/GN1 protein) (Homo sapiens (Human), UniProt P13807). Put plainly: GYS1 coupled enzyme assay (PK/LDH). The test is classed as biochemical. To be noted: hGYS1/GN1 50 nM, UDP-Glucose 0.8 mM, G6P 1 mM; geometric mean of at least 2 runs.
Test [2] addresses hGYS2 enzyme (recombinant hGYS2/GN1 protein) (Homo sapiens (Human), UniProt P54840). Nature of the test: GYS2 coupled enzyme assay (PK/LDH). Format: biochemical. To be noted: geometric mean of at least 2 assay runs on separate days, read-out: Avg_IC50. An outline of the steps:
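Continuous PK/LDH-coupled readout of NADH loss at 340 nm over 10 min, with 200 nM hGYS2/GN1 and 2 mM each of UDP-glucose, glucose-6-phosphate and PEP, in 50 mM Tris pH 7.5 with 0.2% glycogen and 2.5% DMSO. Slopes were normalized to controls and IC50s fit to a Hill curve from duplicates.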

Test [3] relates to hGYS1 enzyme / glycogen synthesis in HeLa cells. Put plainly: GYS1 cell based assay (glycogen synthesis, Glucose-glo). As to conditions: 24 h incubation, 20 mM glucose, geometric mean of at least 2 runs. Also on record: species or system human. An outline of the steps:
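HeLa cells starved 24 h in medium containing only 1× Glutamax were plated onto compound in medium with 20 mM glucose (1% DMSO final) for 24 h, 37 °C, 5% CO2. Acid lysates were Tris-quenched, glucoamylase-digested (pH 5.3, 1 h, 37 °C) and read by Glucose-glo luminescence. IC50 came from Hill fits, as geometric mean of ≥2 runs.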

From patent publication US11814367B2, “Inhibitors of glycogen synthase 1 (GYS1) and methods of use thereof” (Maze Therapeutics, Inc., priority 2021, dated 2023) come the findings set out here.

hGYS2 enzyme (recombinant hGYS2/GN1 protein), sequence (P54840 whole entry): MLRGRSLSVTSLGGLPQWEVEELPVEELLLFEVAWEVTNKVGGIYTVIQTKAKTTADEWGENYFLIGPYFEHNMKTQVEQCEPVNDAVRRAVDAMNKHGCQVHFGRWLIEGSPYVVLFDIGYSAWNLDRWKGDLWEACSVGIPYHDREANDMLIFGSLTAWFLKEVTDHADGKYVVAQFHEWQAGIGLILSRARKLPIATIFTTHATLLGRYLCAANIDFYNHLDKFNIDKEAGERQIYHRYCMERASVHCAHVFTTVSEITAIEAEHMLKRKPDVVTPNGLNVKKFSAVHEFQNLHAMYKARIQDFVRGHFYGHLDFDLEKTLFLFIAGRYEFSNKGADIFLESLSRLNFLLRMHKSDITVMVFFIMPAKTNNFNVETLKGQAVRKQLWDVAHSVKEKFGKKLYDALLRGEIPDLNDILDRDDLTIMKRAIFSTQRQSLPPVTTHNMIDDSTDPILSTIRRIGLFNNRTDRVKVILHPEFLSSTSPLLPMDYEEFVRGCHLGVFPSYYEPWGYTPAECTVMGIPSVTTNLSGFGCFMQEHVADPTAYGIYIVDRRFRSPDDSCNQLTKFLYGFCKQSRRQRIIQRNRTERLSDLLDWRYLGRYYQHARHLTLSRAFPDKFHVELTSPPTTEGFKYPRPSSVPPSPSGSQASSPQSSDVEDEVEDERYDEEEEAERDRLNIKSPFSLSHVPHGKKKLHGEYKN
hGYS2 enzyme (recombinant hGYS2/GN1 protein), sequence (P46976 whole entry partner): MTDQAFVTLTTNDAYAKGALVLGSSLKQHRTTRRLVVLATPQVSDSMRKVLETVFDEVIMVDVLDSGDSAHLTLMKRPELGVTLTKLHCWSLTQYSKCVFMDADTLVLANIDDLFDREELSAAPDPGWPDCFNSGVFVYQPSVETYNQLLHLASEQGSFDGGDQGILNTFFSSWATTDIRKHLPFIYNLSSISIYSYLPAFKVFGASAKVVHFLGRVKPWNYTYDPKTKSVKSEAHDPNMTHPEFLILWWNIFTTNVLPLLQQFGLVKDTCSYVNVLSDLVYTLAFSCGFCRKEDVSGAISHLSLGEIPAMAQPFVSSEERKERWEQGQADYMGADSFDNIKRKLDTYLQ
hGYS1 enzyme (recombinant hGYS1/GN1 protein), sequence (P13807 whole entry): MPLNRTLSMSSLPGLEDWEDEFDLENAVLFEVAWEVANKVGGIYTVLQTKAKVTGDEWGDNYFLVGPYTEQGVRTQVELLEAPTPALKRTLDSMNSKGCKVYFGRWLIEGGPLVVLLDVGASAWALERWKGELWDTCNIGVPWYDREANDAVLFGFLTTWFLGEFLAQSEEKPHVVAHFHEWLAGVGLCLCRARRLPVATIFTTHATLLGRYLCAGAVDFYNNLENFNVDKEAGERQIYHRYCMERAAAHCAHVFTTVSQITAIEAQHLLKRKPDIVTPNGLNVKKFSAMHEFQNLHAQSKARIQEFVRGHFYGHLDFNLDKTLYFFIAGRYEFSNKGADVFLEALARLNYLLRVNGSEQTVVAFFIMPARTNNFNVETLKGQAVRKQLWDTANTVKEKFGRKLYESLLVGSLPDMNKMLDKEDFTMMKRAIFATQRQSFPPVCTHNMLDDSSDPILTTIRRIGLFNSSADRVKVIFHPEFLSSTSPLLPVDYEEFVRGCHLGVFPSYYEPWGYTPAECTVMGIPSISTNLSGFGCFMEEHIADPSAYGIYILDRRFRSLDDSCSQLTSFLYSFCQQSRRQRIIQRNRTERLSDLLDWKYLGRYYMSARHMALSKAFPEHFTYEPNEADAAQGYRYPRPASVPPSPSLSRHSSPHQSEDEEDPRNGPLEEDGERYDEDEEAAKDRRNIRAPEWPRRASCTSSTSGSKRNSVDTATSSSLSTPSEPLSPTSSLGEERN
hGYS1 enzyme (recombinant hGYS1/GN1 protein), sequence (P46976 whole entry partner): as the sequence (P46976 whole entry partner) above

Take `O=C(N[C@@H](c1ccccc1)c1ccc(C2CC2)c(F)n1)[C@@H]1C[C@@H](F)CN1C(=O)Cn1cnnc1` [Compound 296, (2S,4R)-N-[(S)-(5-cyclopropyl-6-fluoropyridin-2-yl)(phenyl)methyl]-4-fluoro-1-[2-(4H-1,2,4-triazol-4-yl)acetyl]pyrrolidine-2-carboxamide]: the IC50 is 87 nM in test [1]; more than 100000 nM in test [2]; 4440 nM in test [3] (Homo sapiens, HeLa, 24 h).
For `CC(C)c1ccc([C@@H](NC(=O)[C@@H]2C[C@@H](F)CN2C(=O)CN(C)C(=O)N(C)C)c2ccccc2)cc1F` [Compound 362, (2S,4R)-1-{2-[(dimethylcarbamoyl) (methyl)amino]acetyl}-4-fluoro-N-[(S)-[3-fluoro-4-(propan-2-yl)phenyl](phenyl)methyl] pyrrolidine-2-carboxamide], in that order: 90 nM, more than 100000 nM and 1150 nM.
For `O=C(N[C@@H](c1ccccc1)c1ccc(C2CC2)c(F)c1)[C@@H]1C[C@@H](F)CN1C(=O)Cc1n[nH]c2ccccc12` [Compound 458, (2S,4R)-N-[(S)-(4-cyclopropyl-3-fluorophenyl)(phenyl)methyl]-4-fluoro-1-[2-(1H-indazol-3-yl)acetyl]pyrrolidine-2-carboxamide], in that order: 71 nM, more than 100000 nM and 1330 nM.
The corresponding values for `COc1cccc(C(NC(=O)[C@@H]2C[C@@H](F)CN2C(=O)Cc2cnn[nH]2)c2ccc(C(C)C)c(F)n2)c1` (single isomer, unassigned) [Compound 651, (2S,4R)-4-fluoro-N-[(S) or (R)-[6-fluoro-5-(propan-2-yl)pyridin-2-yl](3-methoxyphenyl)methyl]-1-[2-(1H-1,2,3-triazol-5-yl)acetyl]pyrrolidine-2-carboxamide] are 77 nM, more than 100000 nM and 1570 nM.
For `Cc1cn(CC(=O)N2C[C@H](F)C[C@H]2C(=O)N[C@@H](c2ccccc2)c2ccc(C3CC3)c(F)c2)cn1` [Compound 468, (2S,4R)-N-[(S)-(4-cyclopropyl-3-fluorophenyl)(phenyl)methyl]-4-fluoro-1-[2-(4-methyl-1H-imidazol-1-yl)acetyl]pyrrolidine-2-carboxamide], the IC50 is 91 nM in test [1]; more than 100000 nM in test [2]; 1430 nM in test [3] (Homo sapiens, HeLa, 24 h).
The corresponding values for `O=C(N[C@@H](c1ccccc1)c1ccc(C2CC2)c(F)n1)[C@@H]1C[C@@H](F)CN1C(=O)Cn1ccc(C(F)F)n1` [Compound 729, (2S,4R)-N-[(S)-(5-cyclopropyl-6-fluoropyridin-2-yl)(phenyl)methyl]-1-{2-[3-(difluoromethyl)-1H-pyrazol-1-yl]acetyl}-4-fluoropyrrolidine-2-carboxamide] are 39 nM, more than 100000 nM and 710 nM.
For `CC(C)c1ccc([C@@H](NC(=O)[C@@H]2C[C@@H](F)CN2C(=O)Cc2nn(C)c(=O)n2C)c2ccccc2)nc1F` [Compound 779, (2S,4R)-1-[2-(1,4-dimethyl-5-oxo-4,5-dihydro-1H-1,2,4-triazol-3-yl)acetyl]-4-fluoro-N-[(S)-[6-fluoro-5-(propan-2-yl)pyridin-2-yl](phenyl)methyl] pyrrolidine-2-carboxamide], the IC50 in test [2] was more than 100000 nM; in test [3] (Homo sapiens, HeLa, 24 h), 330 nM.
For the compound `CC(C)c1ccc(C(NC(=O)[C@@H]2C[C@@H](F)CN2C(=O)Cc2cnn[nH]2)c2ccc3cn[nH]c3c2)nc1F` (single isomer, unassigned) [Compound 633, (2S,4R)-4-fluoro-N-[(R) or (S)-[6-fluoro-5-(propan-2-yl)pyridin-2-yl](1H-indazol-6-yl)methyl]-1-[2-(1H-1,2,3-triazol-5-yl)acetyl]pyrrolidine-2-carboxamide], the IC50 was 1600 nM in test [1] and more than 30000 nM in test [3].
For `O=C(NC(c1ccccc1)c1ccc(C2CC2)cn1)[C@@H]1C[C@@H](F)CN1C(=O)Cc1cnn[nH]1` (single isomer, unassigned) [Compound 498, (2S,4R)-1-(2-(1H-1,2,3-triazol-5-yl)acetyl)-N—((R) or (S)-(5-cyclopropylpyridin-2-yl)(phenyl)methyl)-4-fluoropyrrolidine-2-carboxamide], in that order: more than 10000 nM and more than 10000 nM.
Take `O=C(N[C@@H](c1ccccc1)c1ccc(C2CC2)c(F)c1)[C@@H]1C[C@@H](F)CN1C(=O)CCc1n[nH]c(=O)[nH]1` [Compound 493, (2S,4R)-N-[(S)-(4-cyclopropyl-3-fluorophenyl)(phenyl)methyl]-4-fluoro-1-[3-(5-oxo-4,5-dihydro-1H-1,2,4-triazol-3-yl)propanoyl]pyrrolidine-2-carboxamide]: the IC50 in test [1] was found to be 103 nM; in test [3] (Homo sapiens, HeLa, 24 h), 15800 nM.
For `CC(=O)NCc1cccc([C@H](NC(=O)[C@@H]2C[C@@H](F)CN2C(=O)Cc2cnn[nH]2)c2ccc(C(C)C)c(F)n2)c1` [Compound 655, (2S,4R)-N-[(S)-[3-(acetamidomethyl)phenyl][6-fluoro-5-(propan-2-yl)pyridin-2-yl]methyl]-4-fluoro-1-[2-(1H-1,2,3-triazol-5-yl)acetyl]pyrrolidine-2-carboxamide], in that order: 1010 nM and more than 30000 nM.
Regarding `CCn1cc(CC(=O)N2C[C@H](F)C[C@H]2C(=O)N[C@@H](c2ccccc2)c2ccc(C3CC(F)(F)C3)c(F)n2)ncc1=O` [Compound 527, (2S,4R)-N-[(S)-[5-(3,3-difluorocyclobutyl)-6-fluoropyridin-2-yl](phenyl)methyl]-1-[2-(4-ethyl-5-oxo-4,5-dihydropyrazin-2-yl)acetyl]-4-fluoropyrrolidine-2-carboxamide], the IC50 in test [1] was found to be 7 nM; in test [3] (Homo sapiens, HeLa, 24 h), 250 nM.
The corresponding values for `CC1(c2ccc([C@H](NC(=O)[C@@H]3C[C@@H](F)CN3C(=O)Cc3cnn[nH]3)c3ccccc3)cc2F)CCC1` [Compound 684, (2S,4R)-4-fluoro-N-[(R)-[3-fluoro-4-(1-methylcyclobutyl)phenyl](phenyl)methyl]-1-[2-(1H-1,2,3-triazol-5-yl)acetyl]pyrrolidine-2-carboxamide] are 1330 nM and 13800 nM.
The corresponding values for `CCn1ccnc(CC(=O)N2C[C@H](F)C[C@H]2C(=O)N[C@@H](c2ccccc2)c2ccc(C3CC(F)(F)C3)c(F)n2)c1=O` [Compound 531, (2S,4R)-N-[(S)-[5-(3,3-difluorocyclobutyl)-6-fluoropyridin-2-yl](phenyl)methyl]-1-[2-(4-ethyl-3-oxo-3,4-dihydropyrazin-2-yl)acetyl]-4-fluoropyrrolidine-2-carboxamide] are 8 nM and 60 nM.
The corresponding values for `O=C(N[C@@H](c1ccccc1)c1ccc(C2CC2)c(F)n1)[C@@H]1C[C@@H](F)CN1C(=O)Cn1nncc1C(F)F` [Compound 747, (2S,4R)-N-[(S)-(5-cyclopropyl-6-fluoropyridin-2-yl)(phenyl)methyl]-1-{2-[5-(difluoromethyl)-1H-1,2,3-triazol-1-yl]acetyl}-4-fluoropyrrolidine-2-carboxamide] are 16 nM and 420 nM.
`CCn1cc(CC(=O)N2C[C@H](F)C[C@H]2C(=O)N[C@@H](c2ccccc2)c2ccc(C3CC3)c(F)n2)cc(C)c1=O` [Compound 739, (2S,4R)-N-[(S)-(5-cyclopropyl-6-fluoropyridin-2-yl)(phenyl)methyl]-1-[2-(1-ethyl-5-methyl-6-oxo-1,6-dihydropyridin-3-yl)acetyl]-4-fluoropyrrolidine-2-carboxamide]: the IC50 in test [1] turned out to be 17 nM; in test [3] (Homo sapiens, HeLa, 24 h) it was 340 nM.
For `CC(=O)NCC(=O)N1C[C@H](F)C[C@H]1C(=O)NC(c1cccc(-c2ccn[nH]2)c1)c1ccc(C(C)C)c(F)n1` (single isomer, unassigned) [Compound 691, (2S,4R)-1-(2-acetamidoacetyl)-4-fluoro-N-[(S) or (R)-[6-fluoro-5-(propan-2-yl)pyridin-2-yl][3-(1H-pyrazol-5-yl)phenyl]methyl] pyrrolidine-2-carboxamide], in that order: 15 nM and 390 nM.
As for `CC(C)c1ccc(C(NC(=O)[C@@H]2C[C@@H](F)CN2C(=O)Cc2cnn[nH]2)c2cccc(-c3cnco3)c2)nc1F` (single isomer, unassigned) [Compound 692, (2S,4R)-4-fluoro-N-[(R) or (S)-[6-fluoro-5-(propan-2-yl)pyridin-2-yl][3-(1,3-oxazol-5-yl)phenyl]methyl]-1-[2-(1H-1,2,3-triazol-5-yl)acetyl]pyrrolidine-2-carboxamide], the IC50 is 2480 nM in test [1] and more than 30000 nM in test [3].
In the case of `CCn1ccnc(CC(=O)N2C[C@H](F)C[C@H]2C(=O)N[C@@H](c2ccccc2)c2ccc(C3CC3)c(F)n2)c1=O` [Compound 753, (2S,4R)-N-[(S)-(5-cyclopropyl-6-fluoropyridin-2-yl)(phenyl)methyl]-1-[2-(4-ethyl-3-oxo-3,4-dihydropyrazin-2-yl)acetyl]-4-fluoropyrrolidine-2-carboxamide], the IC50 in test [1] was determined as 21 nM; in test [3] (Homo sapiens, HeLa, 24 h), 320 nM.
